Source: ChEMBL document CHEMBL1795338, “Identification of pentacyclic triterpenes derivatives as potent inhibitors against glycogen phosphorylase based on 3D-QSAR studies” (Eur J Med Chem, 2011)

Each compound was assayed against T1, Glycogen phosphorylase, muscle form (Oryctolagus cuniculus, UniProt P00489) (assay: Inhibition of rabbit muscle glycogen phosphorylase A assessed as release of phosphate from glucose-1-phosphate after 25 mins by microplate reader based method).
T1 sequence (P00489 whole entry): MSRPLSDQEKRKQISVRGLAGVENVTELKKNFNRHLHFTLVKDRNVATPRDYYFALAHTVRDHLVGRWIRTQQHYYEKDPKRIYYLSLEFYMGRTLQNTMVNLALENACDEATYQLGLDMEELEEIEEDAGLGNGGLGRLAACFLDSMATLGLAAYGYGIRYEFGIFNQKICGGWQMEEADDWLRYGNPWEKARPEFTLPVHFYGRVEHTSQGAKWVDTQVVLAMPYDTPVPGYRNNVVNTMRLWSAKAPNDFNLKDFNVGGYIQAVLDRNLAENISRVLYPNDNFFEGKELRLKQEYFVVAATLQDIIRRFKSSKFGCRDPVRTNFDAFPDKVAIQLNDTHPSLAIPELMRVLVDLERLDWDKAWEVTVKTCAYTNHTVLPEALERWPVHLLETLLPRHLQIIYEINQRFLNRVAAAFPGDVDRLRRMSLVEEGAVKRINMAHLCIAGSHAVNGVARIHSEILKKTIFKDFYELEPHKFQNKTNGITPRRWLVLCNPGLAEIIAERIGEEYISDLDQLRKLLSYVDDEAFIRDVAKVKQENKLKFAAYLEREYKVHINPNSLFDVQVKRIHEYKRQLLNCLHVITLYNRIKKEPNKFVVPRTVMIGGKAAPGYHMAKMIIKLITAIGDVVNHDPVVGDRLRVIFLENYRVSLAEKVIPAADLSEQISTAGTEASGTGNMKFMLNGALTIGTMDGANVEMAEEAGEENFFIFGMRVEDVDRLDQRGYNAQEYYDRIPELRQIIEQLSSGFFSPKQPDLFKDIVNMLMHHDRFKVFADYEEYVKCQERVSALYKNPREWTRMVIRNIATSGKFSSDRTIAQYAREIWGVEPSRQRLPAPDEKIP

For CC1(C)CC[C@]2(C(=O)O)CC[C@]3(C)C(=CC[C@@H]4[C@@]5(C)C/C(=N\O)C(=O)C(C)(C)[C@@H]5CC[C@]43C)[C@@H]2C1, which IC50 is on record?
The IC50 was 26.1 µM.

Which IC50 does the source give for C[C@H]1[C@H](C)CC[C@]2(C(=O)O)CC[C@]3(C)C(=CC[C@@H]4[C@@]5(C)Cc6nonc6C(C)(C)[C@@H]5CC[C@]43C)[C@H]12 here?
The IC50 was 66.3 µM.

For CC1(C)CC[C@]2(C(=O)O)CC[C@]3(C)C(=CC[C@@H]4[C@@]5(C)C/C(=N\O)[C@H](O)C(C)(C)[C@@H]5CC[C@]43C)[C@@H]2C1, which IC50 is on record?
The IC50 was 28.2 µM.

Which IC50 does the source give for CC1(C)CC[C@]2(C(=O)OCc3ccccc3)CC[C@]3(C)C(=CC[C@@H]4[C@@]5(C)CC6C=NOC6C(C)(C)[C@@H]5CC[C@]43C)[C@@H]2C1 (stereo partly specified) here?
Its IC50 is 19.6 µM.

Cc1ccc(NCCCCCCOC(=O)[C@]23CCC(C)(C)C[C@H]2C2=CC[C@@H]4[C@@]5(C)CC[C@H](O)C(C)(C)[C@@H]5CC[C@@]4(C)[C@]2(C)CC3)cc1 was tested. Which IC50 did it give?
The IC50 was 28.1 µM.

C[C@H]1[C@H](C)CC[C@]2(C(=O)OCc3ccccc3)CC[C@]3(C)C(=CC[C@@H]4[C@@]5(C)C[C@H](O)[C@@H](O)C(C)(C)[C@@H]5CC[C@]43C)[C@H]12 was tested. Which IC50 did it give?
The IC50 was 1.25 µM.

How did the IC50 turn out when CC1(C)CC[C@]2(C(=O)OCc3ccccc3)CC[C@]3(C)C(=CC[C@@H]4[C@@]5(C)C/C(=N\O)[C@H](O)C(C)(C)[C@@H]5CC[C@]43C)[C@@H]2C1 was run?
The IC50 was 179 µM.

Which IC50 does the source give for CO[C@H]1O[C@H](Cn2cc(COC(=O)[C@]34CCC(C)(C)C[C@H]3C3=CC[C@@H]5[C@@]6(C)CC[C@H](O)C(C)(C)[C@@H]6CC[C@@]5(C)[C@]3(C)CC4)nn2)[C@@H](O)[C@H](O)[C@H]1O here?
The IC50 was 1.14 µM.

CC1(C)CC[C@]2(C(=O)O)CC[C@]3(C)C(=CC[C@@H]4[C@@]5(C)C[C@H](O)CC(C)(C)[C@@H]5CC[C@]43C)[C@@H]2C1 was tested. Which IC50 did it give?
Its IC50 is 22.7 µM.

CC(=O)O[C@H]1CC[C@]2(C)[C@H]3CC=C4[C@@H]5[C@@H](C)[C@H](C)CC[C@]5(C(=O)OC[C@H](O)[C@H]5OC(=O)C(O)=C5O)CC[C@@]4(C)[C@]3(C)CC[C@H]2C1(C)C was tested. Which IC50 did it give?
Its IC50 is 1.53 µM.

C[C@H]1[C@H](C)CC[C@]2(C(=O)O)CC[C@]3(C)C(=CC[C@@H]4[C@@]5(C)C[C@H](O)CC(C)(C)[C@@H]5CC[C@]43C)[C@H]12 was tested. Which IC50 did it give?
Its IC50 is 20.6 µM.

CC1(C)CC[C@]2(C(=O)OCc3ccccc3)CC[C@]3(C)C(=CC[C@@H]4[C@@]5(C)CC[C@H](OC(=O)Cn6cc(COC(=O)Cc7ccccc7)nn6)C(C)(C)[C@@H]5CC[C@]43C)[C@@H]2C1 was tested. Which IC50 did it give?
The IC50 was 27.7 µM.

Which IC50 does the source give for CCCCOC(=O)[C@]12CC[C@@H](C)[C@H](C)[C@H]1C1=CC[C@@H]3[C@@]4(C)C[C@@H](O)[C@H](O)C(C)(C)[C@@H]4CC[C@@]3(C)[C@]1(C)CC2 here?
Its IC50 is 92.1 µM.

With CC(C)c1ccc(-n2ncc3c2C(C)(C)[C@@H]2CC[C@]4(C)[C@H](CC=C5[C@@H]6CC(C)(C)CC[C@]6(C(=O)O)CC[C@]54C)[C@@]2(C)C3)cc1 as the compound, how does the IC50 read?
Its IC50 is 69.6 µM.

With CC1(C)CC[C@]2(C(=O)OCc3ccccc3)CC[C@]3(C)C(=CC[C@@H]4[C@@]5(C)CC[C@H](OC(=O)CCl)C(C)(C)[C@@H]5CC[C@]43C)[C@@H]2C1 as the compound, how does the IC50 read?
The IC50 was 12.6 µM.

How did the IC50 turn out when CC1(C)CC[C@]2(C(=O)O)CC[C@]3(C)C(=CC[C@@H]4[C@@]5(C)CC[C@H](OC(=O)Cn6cc(COC(=O)Cc7ccccc7)nn6)C(C)(C)[C@@H]5CC[C@]43C)[C@@H]2C1 was run?
The IC50 was 30.9 µM.

With CC(=O)OCCCCCCOC(=O)[C@H](O)CC(=O)OCCCCCCOC(=O)[C@]12CCC(C)(C)C[C@H]1C1=CC[C@@H]3[C@@]4(C)CC[C@H](O)C(C)(C)[C@@H]4CC[C@@]3(C)[C@]1(C)CC2 as the compound, how does the IC50 read?
Its IC50 is 12.3 µM.

With COC(=O)[C@]12CC[C@@H](C)[C@H](C)[C@H]1C1=CC[C@@H]3[C@@]4(C)C[C@@H](O)[C@H](O)C(C)(C)[C@@H]4CC[C@@]3(C)[C@]1(C)CC2 [COROSOLIC ACID METHYL ESTER] as the compound, how does the IC50 read?
Its IC50 is 33.7 µM.

With COC(=O)[C@H](Cc1ccc(O)cc1)NC(=O)[C@]12CC[C@@H](C)[C@H](C)[C@H]1C1=CC[C@@H]3[C@@]4(C)C[C@@H](OC(C)=O)[C@H](OC(C)=O)C(C)(C)[C@@H]4CC[C@@]3(C)[C@]1(C)CC2 as the compound, how does the IC50 read?
The IC50 was 11.2 µM.

With C[C@H]1[C@H](C)CC[C@]2(C(=O)OCn3cccn3)CC[C@]3(C)C(=CC[C@@H]4[C@@]5(C)C[C@@H](O)[C@H](O)C(C)(C)[C@@H]5CC[C@]43C)[C@H]12 as the compound, how does the IC50 read?
Its IC50 is 62.1 µM.

How did the IC50 turn out when CC1(C)CC[C@]2(C(=O)OCc3ccccc3)CC[C@]3(C)C(=CC[C@@H]4[C@@]5(C)Cc6cnn(-c7ccc(Cl)cc7)c6C(C)(C)[C@@H]5CC[C@]43C)[C@@H]2C1 was run?
The IC50 was 11.2 µM.

For Cc1ccc(-n2ncc3c2C(C)(C)[C@@H]2CC[C@]4(C)[C@H](CC=C5[C@@H]6CC(C)(C)CC[C@]6(C(=O)O)CC[C@]54C)[C@@]2(C)C3)cc1, which IC50 is on record?
The IC50 was 18.3 µM.

For CC1(C)CC[C@]2(C(=O)O)CC[C@]3(C)C(=CC[C@@H]4[C@@]5(C)C[C@H](O)[C@H](O)[C@@](C)(CO)[C@@H]5CC[C@]43C)[C@@H]2C1, which IC50 is on record?
Its IC50 is 67.8 µM.

With C[C@H]1[C@H](C)CC[C@]2(C(=O)OCc3ccccc3)CC[C@]3(C)C(=CC[C@@H]4[C@@]5(C)Cc6cn[nH]c6C(C)(C)[C@@H]5CC[C@]43C)[C@H]12 as the compound, how does the IC50 read?
The IC50 was 72.9 µM.

How did the IC50 turn out when CC(=O)O[C@@H]1C[C@]2(C)[C@H]3CC=C4[C@@H]5CC(C)(C)CC[C@]5(C(=O)O)CC[C@@]4(C)[C@]3(C)CC[C@H]2C(C)(C)[C@H]1OC(C)=O was run?
Its IC50 is 13.3 µM.

CCC(=O)O[C@@H]1C[C@]2(C)[C@H]3CC=C4[C@@H]5CC(C)(C)CC[C@]5(C(=O)O)CC[C@@]4(C)[C@]3(C)CC[C@H]2C(C)(C)[C@H]1OC(=O)CC was tested. Which IC50 did it give?
The IC50 was 10.5 µM.

Which IC50 does the source give for CC1(C)CC[C@]2(C(=O)O)CC[C@]3(C)C(=CC[C@@H]4[C@@]5(C)Cc6nonc6C(C)(C)[C@@H]5CC[C@]43C)[C@@H]2C1 here?
Its IC50 is 11.2 µM.

CC1(C)CC[C@]2(C(=O)OCc3ccccc3)CC[C@]3(C)[C@H]([C@H](O)C[C@@H]4[C@@]5(C)CC[C@H](O)C(C)(C)[C@@H]5CC[C@]43C)[C@@H]2C1 was tested. Which IC50 did it give?
Its IC50 is 5.35 µM.

With Cn1cc2c(n1)C(C)(C)[C@@H]1CC[C@]3(C)[C@H](CC=C4[C@@H]5CC(C)(C)CC[C@]5(C(=O)OCc5ccccc5)CC[C@]43C)[C@@]1(C)C2 as the compound, how does the IC50 read?
The IC50 was 188 µM.

CC1(C)CC[C@]2(C(=O)OCc3ccccc3)CC[C@]3(C)C(=CC[C@@H]4[C@@]5(C)CC(=N\O)/C(=N\O)C(C)(C)[C@@H]5CC[C@]43C)[C@@H]2C1 was tested. Which IC50 did it give?
Its IC50 is 22.3 µM.

How did the IC50 turn out when C[C@H]1[C@H](C)CC[C@]2(C(=O)OCc3ccccc3)CC[C@]3(C)C(=CC[C@@H]4[C@@]5(C)C[C@@H](O)C(=O)C(C)(C)[C@@H]5CC[C@]43C)[C@H]12 was run?
Its IC50 is 31.8 µM.

For CCCC(=O)O[C@@H]1C[C@]2(C)[C@H]3CC=C4[C@@H]5CC(C)(C)CC[C@]5(C(=O)O)CC[C@@]4(C)[C@]3(C)CC[C@H]2C(C)(C)[C@H]1OC(=O)CCC, which IC50 is on record?
The IC50 was 25.2 µM.

Which IC50 does the source give for CCOC(=O)COC(=O)[C@]12CC[C@@H](C)[C@H](C)[C@H]1C1=CC[C@@H]3[C@@]4(C)C[C@@H](O)[C@H](O)C(C)(C)[C@@H]4CC[C@@]3(C)[C@]1(C)CC2 here?
Its IC50 is 102 µM.

With CNCCOC(=O)[C@]12CCC(C)(C)C[C@H]1C1=CC[C@@H]3[C@@]4(C)CC[C@H](O)C(C)(C)[C@@H]4CC[C@@]3(C)[C@]1(C)CC2 as the compound, how does the IC50 read?
Its IC50 is 53.2 µM.

With C[C@H]1[C@H](C)CC[C@]2(C(=O)OC3CC3)CC[C@]3(C)C(=CC[C@@H]4[C@@]5(C)C[C@@H](O)[C@H](O)C(C)(C)[C@@H]5CC[C@]43C)[C@H]12 as the compound, how does the IC50 read?
The IC50 was 91.2 µM.

How did the IC50 turn out when CCCC(=O)O[C@@H]1C[C@]2(C)[C@H]3CC=C4[C@@H]5[C@@H](C)[C@H](C)CC[C@]5(C(=O)O)CC[C@@]4(C)[C@]3(C)CC[C@H]2C(C)(C)[C@H]1O was run?
The IC50 was 77.9 µM.
